± gives the standard deviation of the averaged measurements.
Experiments:
Assay in all cases: level (log10 ratio to DMSO vehicle control); higher = higher biomarker level / cell amount than vehicle control
[1] = compound: FC(F)(F)C(F)(F)C(F)(F)CC1CO1 [1H,1H-Heptafluorobutyl epoxide]; conditions: in DMSO
Experimental: (§1)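 BioMAP Diversity Plus panel of 12 human primary cell co-culture systems (3C, 4H, LPS, SAg, BT, BF4T, BE3C, CASM3C, HDF3CGF, KF3CT, MyoF, Mphg). Compounds were added 1 h before stimulation and left for 24 h (MyoF 48 h; BT 72 h for soluble read-outs or 6 d for IgG). Biomarkers were read by ELISA, cytotoxicity by SRB, PBMC viability and proliferation by Alamar Blue. Each well value was divided by the mean of 8 DMSO control wells on the same plate and log10 transformed; duplicate blinded samples were tested at 4 concentrations.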

[2] = compound: FC(F)(F)C(F)(F)C(F)(F)C(F)(F)C(F)(F)C(F)(F)C(F)(F)I [1-Iodopentadecafluoroheptane]; conditions: in DMSO
Experimental: as §1

[3] = compound: C=C(C)C(=O)OCCC(F)(F)C(F)(F)C(F)(F)C(F)(F)C(F)(F)C(F)(F)F [6:2 Fluorotelomer methacrylate]; conditions: in DMSO
Experimental: as §1

[4] = compound: NS(=O)(=O)C(F)(F)C(F)(F)C(F)(F)C(F)(F)C(F)(F)C(F)(F)F [Perfluorohexanesulfonamide]; conditions: in DMSO
Experimental: as §1

[5] = compound: C=CC(=O)OCC(F)(F)C(F)(F)C(F)(F)COC(=O)C=C [1H,1H,5H,5H-Perfluoro-1,5-pentanediol diacrylate]; conditions: 6700 nM; in DMSO
Experimental: as §1

[6] = compound: O=S(=O)(O)CCC(F)(F)C(F)(F)C(F)(F)C(F)(F)C(F)(F)C(F)(F)F [6:2 Fluorotelomer sulfonic acid]; conditions: in DMSO
Experimental: as §1

With CASM3C:CXCL8/IL-8 the “level (log10)” value ([1]; 6700 nM) was 0 ± 0.017, the “level (log10)” value ([1]; 20000 nM) was 0.0005 ± 0.0078 and the “level (log10)” value ([1]; 60000 nM) was -0.0035 ± 0.00071. For the same test system, the “level (log10)” value ([2]; 6700 nM) was -0.0165 ± 0.016, the “level (log10)” value ([2]; 20000 nM) was 0.001 ± 0.017 and the “level (log10)” value ([3]; 6700 nM) was 0.0185 ± 0.018. For the same test system, the “level (log10)” value ([3]; 20000 nM) was 0.0165 ± 0.012, the “level (log10)” value ([3]; 60000 nM) was 0.0205 ± 0.00071 and the “level (log10)” value ([4]; 6700 nM) was -0.0235 ± 0.0035. For the same test system, the “level (log10)” value ([4]; 20000 nM) was -0.014 ± 0.014, the “level (log10)” value ([4]; 60000 nM) was 0.001 ± 0.0085 and the “level (log10)” value [5] was -0.0125 ± 0.00071. The “level (log10)” value ([6]; 6700 nM) was 0.007 ± 0.0042, the “level (log10)” value ([6]; 20000 nM) was -0.016 ± 0.011 and the “level (log10)” value ([6]; 60000 nM) was 0.0185 ± 0.019.
In the case of CASM3C:CXCL9/MIG, the “level (log10)” value ([1]; 6700 nM) is reported as -0.01 ± 0.011, the “level (log10)” value ([1]; 20000 nM) is reported as -0.0145 ± 0.023 and the “level (log10)” value ([1]; 60000 nM) is reported as 0.004 ± 0.013. For the same test system, the “level (log10)” value ([2]; 6700 nM) was -0.0165 ± 0.025, the “level (log10)” value ([2]; 20000 nM) was 0.018 ± 0.018 and the “level (log10)” value ([3]; 6700 nM) was 0.011 ± 0.016. For the same test system, the “level (log10)” value ([3]; 20000 nM) was 0.0255 ± 0.012, the “level (log10)” value ([3]; 60000 nM) was 0.041 ± 0.0099 and the “level (log10)” value ([4]; 6700 nM) was 0.003 ± 0.0042. The “level (log10)” value ([4]; 20000 nM) was -0.0065 ± 0.005, the “level (log10)” value ([4]; 60000 nM) was -0.003 ± 0.023 and the “level (log10)” value [5] was -0.229 ± 0.011. The “level (log10)” value ([6]; 6700 nM) was -0.0445 ± 0.0078, the “level (log10)” value ([6]; 20000 nM) was -0.0315 ± 0.0035 and the “level (log10)” value ([6]; 60000 nM) was -0.015 ± 0.045.
With CASM3C:IL-6 the “level (log10)” value ([1]; 6700 nM) was -0.0235 ± 0.022, the “level (log10)” value ([1]; 20000 nM) was -0.012 ± 0.0099 and the “level (log10)” value ([1]; 60000 nM) was 0.009 ± 0.047. The “level (log10)” value ([2]; 6700 nM) was -0.0425 ± 0.026, the “level (log10)” value ([2]; 20000 nM) was -0.0035 ± 0.053 and the “level (log10)” value ([3]; 6700 nM) was -0.0405 ± 0.035. The “level (log10)” value ([3]; 20000 nM) was -0.046 ± 0.0042, the “level (log10)” value ([3]; 60000 nM) was 0.005 ± 0.0028 and the “level (log10)” value ([4]; 6700 nM) was -0.0145 ± 0.013. For the same test system, the “level (log10)” value ([4]; 20000 nM) was -0.054 ± 0.0099, the “level (log10)” value ([4]; 60000 nM) was -0.0495 ± 0.044 and the “level (log10)” value [5] was -0.0735 ± 0.00071. The “level (log10)” value ([6]; 6700 nM) was -0.003 ± 0.011, the “level (log10)” value ([6]; 20000 nM) was -0.014 ± 0.0014 and the “level (log10)” value ([6]; 60000 nM) was 0.006 ± 0.017.
In the case of CASM3C:M-CSF, the “level (log10)” value ([1]; 6700 nM) is reported as -0.0205 ± 0.029, the “level (log10)” value ([1]; 20000 nM) is reported as -0.015 ± 0.0042 and the “level (log10)” value ([1]; 60000 nM) is reported as -0.014 ± 0.033. For the same test system, the “level (log10)” value ([2]; 6700 nM) was -0.0285 ± 0.019, the “level (log10)” value ([2]; 20000 nM) was 0.0225 ± 0.052 and the “level (log10)” value ([3]; 6700 nM) was -0.004 ± 0.011. For the same test system, the “level (log10)” value ([3]; 20000 nM) was 0.002 ± 0.0014, the “level (log10)” value ([3]; 60000 nM) was 0.024 ± 0.021 and the “level (log10)” value ([4]; 6700 nM) was 0.009 ± 0.035. For the same test system, the “level (log10)” value ([4]; 20000 nM) was 0.0295 ± 0.012, the “level (log10)” value ([4]; 60000 nM) was 0.119 ± 0.0035 and the “level (log10)” value [5] was -0.056 ± 0.021. The “level (log10)” value ([6]; 6700 nM) was -0.011 ± 0.044, the “level (log10)” value ([6]; 20000 nM) was -0.002 ± 0.0085 and the “level (log10)” value ([6]; 60000 nM) was 0.002 ± 0.037.
In the case of CASM3C:PAI-I, the “level (log10)” value ([1]; 6700 nM) is reported as -0.0045 ± 0.0092, the “level (log10)” value ([1]; 20000 nM) is reported as 0 ± 0.0057 and the “level (log10)” value ([1]; 60000 nM) is reported as 0.005 ± 0.017. The “level (log10)” value ([2]; 6700 nM) was -0.013 ± 0.011, the “level (log10)” value ([2]; 20000 nM) was 0.0075 ± 0.011 and the “level (log10)” value ([3]; 6700 nM) was -0.01 ± 0.013. The “level (log10)” value ([3]; 20000 nM) was -0.0055 ± 0.0021, the “level (log10)” value ([3]; 60000 nM) was 0.007 ± 0.013 and the “level (log10)” value ([4]; 6700 nM) was -0.0045 ± 0.011. The “level (log10)” value ([4]; 20000 nM) was -0.008 ± 0.0042, the “level (log10)” value ([4]; 60000 nM) was 0.004 ± 0.0071 and the “level (log10)” value [5] was 0.002 ± 0.0042. The “level (log10)” value ([6]; 6700 nM) was -0.001 ± 0.023, the “level (log10)” value ([6]; 20000 nM) was -0.0025 ± 0.015 and the “level (log10)” value ([6]; 60000 nM) was 0 ± 0.0099.
With CASM3C:SRB the “level (log10)” value ([1]; 6700 nM) was -0.006 ± 0.014, the “level (log10)” value ([1]; 20000 nM) was 0.0055 ± 0.0035 and the “level (log10)” value ([1]; 60000 nM) was -0.0035 ± 0.005. The “level (log10)” value ([2]; 6700 nM) was -0.0025 ± 0.0092, the “level (log10)” value ([2]; 20000 nM) was 0.007 and the “level (log10)” value ([3]; 6700 nM) was 0.001 ± 0.0057. The “level (log10)” value ([3]; 20000 nM) was -0.0035 ± 0.0021, the “level (log10)” value ([3]; 60000 nM) was 0.002 ± 0.0042 and the “level (log10)” value ([4]; 6700 nM) was 0.004 ± 0.013. The “level (log10)” value ([4]; 20000 nM) was 0.006 ± 0.013, the “level (log10)” value ([4]; 60000 nM) was -0.0035 ± 0.0078 and the “level (log10)” value [5] was -0.0025 ± 0.0021. For the same test system, the “level (log10)” value ([6]; 6700 nM) was -0.004 ± 0.0028, the “level (log10)” value ([6]; 20000 nM) was 0.0025 ± 0.0021 and the “level (log10)” value ([6]; 60000 nM) was 0.001 ± 0.0085.
In the case of CASM3C:Serum Amyloid A, the “level (log10)” value ([1]; 6700 nM) is reported as 0.0025 ± 0.012, the “level (log10)” value ([1]; 20000 nM) is reported as 0.003 ± 0.035 and the “level (log10)” value ([1]; 60000 nM) is reported as 0.032 ± 0.061. For the same test system, the “level (log10)” value ([2]; 6700 nM) was -0.035, the “level (log10)” value ([2]; 20000 nM) was 0.008 ± 0.024 and the “level (log10)” value ([3]; 6700 nM) was -0.032 ± 0.023. For the same test system, the “level (log10)” value ([3]; 20000 nM) was -0.051 ± 0.02, the “level (log10)” value ([3]; 60000 nM) was -0.0425 ± 0.023 and the “level (log10)” value ([4]; 6700 nM) was -0.0055 ± 0.039. For the same test system, the “level (log10)” value ([4]; 20000 nM) was 0.012 ± 0.018, the “level (log10)” value ([4]; 60000 nM) was 0.0625 ± 0.018 and the “level (log10)” value [5] was -0.038 ± 0.0057. The “level (log10)” value ([6]; 6700 nM) was 0.019 ± 0.014, the “level (log10)” value ([6]; 20000 nM) was 0.021 ± 0.03 and the “level (log10)” value ([6]; 60000 nM) was 0.017 ± 0.031.
With HDF3CGF:CCL2/MCP-1 the “level (log10)” value ([1]; 6700 nM) was -0.0325 ± 0.032, the “level (log10)” value ([1]; 20000 nM) was -0.034 ± 0.02 and the “level (log10)” value ([1]; 60000 nM) was -0.02 ± 0.0099. The “level (log10)” value ([2]; 6700 nM) was -0.0205 ± 0.025, the “level (log10)” value ([2]; 20000 nM) was -0.0335 ± 0.0035 and the “level (log10)” value ([3]; 6700 nM) was -0.0445 ± 0.0092. For the same test system, the “level (log10)” value ([3]; 20000 nM) was -0.0295 ± 0.005, the “level (log10)” value ([3]; 60000 nM) was -0.048 ± 0.0028 and the “level (log10)” value ([4]; 6700 nM) was 0.0185 ± 0.016. The “level (log10)” value ([4]; 20000 nM) was 0.047 ± 0.018, the “level (log10)” value ([4]; 60000 nM) was 0.091 ± 0.014 and the “level (log10)” value [5] was -1.14 ± 0.03. The “level (log10)” value ([6]; 6700 nM) was 0.0075 ± 0.019, the “level (log10)” value ([6]; 20000 nM) was 0.0085 ± 0.021 and the “level (log10)” value ([6]; 60000 nM) was 0.008 ± 0.014.
With HDF3CGF:CD54/ICAM-1 the “level (log10)” value ([1]; 6700 nM) was -0.0045 ± 0.022, the “level (log10)” value ([1]; 20000 nM) was -0.0115 ± 0.04 and the “level (log10)” value ([1]; 60000 nM) was -0.0215 ± 0.06. The “level (log10)” value ([2]; 6700 nM) was -0.0025 ± 0.0078, the “level (log10)” value ([2]; 20000 nM) was -0.0075 ± 0.0078 and the “level (log10)” value ([3]; 6700 nM) was -0.011 ± 0.0042. The “level (log10)” value ([3]; 20000 nM) was 0.0035 ± 0.012, the “level (log10)” value ([3]; 60000 nM) was 0.005 ± 0.0014 and the “level (log10)” value ([4]; 6700 nM) was -0.005 ± 0.0028. For the same test system, the “level (log10)” value ([4]; 20000 nM) was -0.0155 ± 0.012, the “level (log10)” value ([4]; 60000 nM) was -0.0225 ± 0.005 and the “level (log10)” value [5] was -0.9415 ± 0.0078. For the same test system, the “level (log10)” value ([6]; 6700 nM) was -0.0085 ± 0.011, the “level (log10)” value ([6]; 20000 nM) was -0.007 ± 0.011 and the “level (log10)” value ([6]; 60000 nM) was -0.029 ± 0.014.

From the supplement of paper PMC10331698
